{"source": "patent US9988371B2", "about": "“Benzimidazole analogues and related methods” (The Arizona Board of Regents, on Behalf of the University …, priority 2014, dated 2018)", "key": {"[1]": {"test_system": "HRAS(G12V) transformed NIH3T3 fibroblasts", "test": "NIH3T3 HRAS(G12V) tumors in nude mice", "format": "in vivo, BALB/c nu/nu mice", "conditions": "1.0, 3.0 or 10 mg/kg daily, oral gavage", "text": "FIG. 8: Anti-tumorigenic activity of Pz-1 in nude mice implanted with RET/C634Y or HRAS(G12V) transformed NIH3T3 fibroblasts. […] Average tumor volume (±SD: standard deviations) is reported. NIH3T3 RET/C634Y (200,000 cells) or NIH3T3 HRAS/G12V (50,000 cells) were inoculated subcutaneously into dorsal portion (both sides) of 6-week-old female BALB/c nu/nu mice (n. 31 mice/cell line) (Jackson Laboratories, Bar Harbor, Me.). After 4 days, before tumors had appeared, animals were randomly assigned to receive Pz-1 (1.0, 3.0 or 10 mg/kg daily) (23 mice/cell line: 8 mice/group for 1.0 and 3.0 mg/kg daily doses and 7 mice for 10 dose mg/kg daily) or vehicle control (8 mice) by oral gavage. Tumor diameters were measured with calipers every 1-2 days. Tumor volumes (V) were calculated by the rotational ellipsoid formula and reported as average volumes±standard deviations. […]\nTT cells (7.5×10^6/mouse) were inoculated subcutaneously into dorsal portions (both sides) of 39 SCID mice (Jackson Laboratories, Bar Harbor, Me.). […] Tumor diameters were measured with callipers every week. Tumor volumes (V) were calculated by the rotational ellipsoid formula: V=A×B^2/2 (A=axial diameter; B=rotational diameter) and reported as average volumes±standard deviations. […] Anti-tumorigenic activity of Pz-1 was also assessed in nude mice implanted with RET/C634Y or HRAS(G12V) transformed NIH3T3 fibroblasts. […]"}, "VEGFR2": {"molecular_target": "T1, VEGFR2 (Mus musculus, UniProt P35918)", "T1 construct": "from tissue; host or cells: subcutaneous tumours (NIH3T3 RET/C634Y or NIH3T3 HRAS/G12V) in BALB/c nu/nu mice", "T1 sequence (P35918 20-1345)": "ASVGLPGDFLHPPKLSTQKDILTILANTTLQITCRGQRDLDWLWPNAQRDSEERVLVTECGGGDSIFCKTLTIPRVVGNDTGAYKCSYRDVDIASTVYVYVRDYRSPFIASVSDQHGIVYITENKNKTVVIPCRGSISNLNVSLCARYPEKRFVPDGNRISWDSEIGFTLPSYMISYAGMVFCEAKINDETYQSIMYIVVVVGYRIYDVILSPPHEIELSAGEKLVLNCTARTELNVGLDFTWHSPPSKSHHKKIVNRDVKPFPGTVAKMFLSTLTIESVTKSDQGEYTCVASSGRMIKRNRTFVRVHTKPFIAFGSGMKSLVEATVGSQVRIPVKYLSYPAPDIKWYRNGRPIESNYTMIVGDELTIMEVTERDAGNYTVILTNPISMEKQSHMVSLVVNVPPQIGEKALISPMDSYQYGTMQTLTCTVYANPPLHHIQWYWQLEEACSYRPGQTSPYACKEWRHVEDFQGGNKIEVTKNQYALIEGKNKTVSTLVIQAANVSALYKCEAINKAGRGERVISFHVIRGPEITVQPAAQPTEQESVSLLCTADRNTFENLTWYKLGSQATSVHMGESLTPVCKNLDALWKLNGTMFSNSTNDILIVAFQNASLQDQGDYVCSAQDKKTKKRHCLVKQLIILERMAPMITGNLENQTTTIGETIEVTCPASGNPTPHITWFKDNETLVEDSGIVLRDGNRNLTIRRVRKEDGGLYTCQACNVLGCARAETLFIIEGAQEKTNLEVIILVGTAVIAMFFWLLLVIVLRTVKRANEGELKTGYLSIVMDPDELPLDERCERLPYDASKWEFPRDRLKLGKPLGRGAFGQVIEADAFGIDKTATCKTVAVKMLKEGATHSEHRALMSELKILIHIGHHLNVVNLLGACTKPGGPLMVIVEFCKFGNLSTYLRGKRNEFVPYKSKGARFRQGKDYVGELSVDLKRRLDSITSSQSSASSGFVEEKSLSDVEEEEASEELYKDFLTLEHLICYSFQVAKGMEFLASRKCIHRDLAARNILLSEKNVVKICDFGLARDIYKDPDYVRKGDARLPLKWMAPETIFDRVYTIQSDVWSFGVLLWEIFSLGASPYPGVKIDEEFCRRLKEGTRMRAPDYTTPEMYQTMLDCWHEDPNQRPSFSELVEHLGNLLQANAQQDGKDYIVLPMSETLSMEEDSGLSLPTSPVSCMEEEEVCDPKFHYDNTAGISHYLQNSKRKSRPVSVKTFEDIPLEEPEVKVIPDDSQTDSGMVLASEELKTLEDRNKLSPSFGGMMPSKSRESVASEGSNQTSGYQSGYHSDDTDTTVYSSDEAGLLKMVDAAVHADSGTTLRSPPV", "test": "In vivo target inhibition, pVEGFR2 in HRAS/G12V-induced tumors", "set-up": "species or system nude mice", "conditions": "48 hr, 1.0 or 3.0 mg/kg daily", "method": "(§1) FIG. 9: Photographs of blots showing effects of Pz-1 on cellular phosphorylation events in tumors induced in nude mice (from FIG. 8) by injection of NIH3T3 fibroblasts transformed by RET/C634Y or HRAS/G12V. […] Some of the vehicle-treated tumors, at the end of the tumor growth experiment described in FIG. 8, were treated for 48 hr with different doses of Pz-1 (TR) or left untreated (NT). At the end of the treatment, 50 μg of tumor protein lysates were subjected to immunoblotting with anti-phospho-Y1062 (αp1062) and anti-phospho-905 (αpY905) RET antibodies, anti-phospho-MAPK (αpMAPK, T302/Y304), anti-phospho-SHC (αpSHC, Y317), anti-phospho-p70S6K (αpp70S6K, T389), anti-phospho-S6RP (αpS6RP, S235/S236), and anti-phospho-VEGFR2 (αpVEGFR2 pY1175) antibodies. The blots were normalized using anti-RET (αRET), anti-SHC (αSHC), anti-MAPK (αMAPK), anti-p70S6K (αp70S6K), anti-S6RP (αS6RP) or anti-VEGFR2 (αVEGFR2) antibodies.\n(§2) Some of the vehicle-treated tumors, at the end of the tumor growth experiment reported in FIG. 8, were treated for 48 hr with different doses of Pz-1 (1.0 or 3.0 mg/kg daily) or left untreated. […]"}, "RET/C634Y": {"molecular_target": "T2, RET/C634Y (Homo sapiens, UniProt P07949, C634Y)", "T2 construct": "expressed in transfected cells; host or cells: NIH3T3 fibroblasts, grown as tumours in BALB/c nu/nu mice", "T2 sequence (P07949 29-1072 isoform P07949-2 C634Y limits assumed)": "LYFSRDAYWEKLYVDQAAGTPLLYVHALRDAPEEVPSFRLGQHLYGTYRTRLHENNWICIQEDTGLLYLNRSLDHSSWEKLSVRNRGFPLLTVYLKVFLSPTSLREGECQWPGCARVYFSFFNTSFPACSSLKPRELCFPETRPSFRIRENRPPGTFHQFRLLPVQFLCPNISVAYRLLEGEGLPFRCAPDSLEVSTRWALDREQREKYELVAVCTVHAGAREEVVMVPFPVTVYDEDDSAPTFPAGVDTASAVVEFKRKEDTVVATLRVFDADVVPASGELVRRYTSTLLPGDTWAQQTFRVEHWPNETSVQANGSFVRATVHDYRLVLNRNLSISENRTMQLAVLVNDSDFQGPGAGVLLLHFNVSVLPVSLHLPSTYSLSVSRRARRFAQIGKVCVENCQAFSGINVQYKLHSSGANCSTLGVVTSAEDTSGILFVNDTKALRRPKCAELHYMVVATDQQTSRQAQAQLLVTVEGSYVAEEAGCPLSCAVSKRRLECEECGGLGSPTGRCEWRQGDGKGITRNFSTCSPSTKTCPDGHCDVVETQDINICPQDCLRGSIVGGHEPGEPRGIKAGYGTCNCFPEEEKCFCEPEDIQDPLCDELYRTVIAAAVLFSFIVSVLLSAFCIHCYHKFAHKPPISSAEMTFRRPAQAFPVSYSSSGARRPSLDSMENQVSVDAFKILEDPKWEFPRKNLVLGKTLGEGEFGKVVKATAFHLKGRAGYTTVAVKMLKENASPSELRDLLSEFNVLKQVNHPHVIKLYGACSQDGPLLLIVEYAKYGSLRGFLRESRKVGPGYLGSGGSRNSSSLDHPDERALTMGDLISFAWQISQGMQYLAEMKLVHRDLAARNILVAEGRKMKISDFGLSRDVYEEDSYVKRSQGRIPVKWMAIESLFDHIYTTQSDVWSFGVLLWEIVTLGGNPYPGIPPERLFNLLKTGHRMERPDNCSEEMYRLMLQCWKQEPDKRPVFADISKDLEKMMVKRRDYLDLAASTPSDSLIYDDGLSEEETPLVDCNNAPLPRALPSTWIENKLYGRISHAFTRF", "test": "In vivo target inhibition, RET phosphorylation and signaling in RET/C634Y-induced tumors", "set-up": "species or system nude mice", "conditions": "48 hr, 1.0 or 3.0 mg/kg daily", "method": "as §1, §2"}, "[2]": {"test": "week-long toxicology study in mice", "format": "in vivo", "method": "For PK studies of Pz-1 in animals, a solution formulation for oral administration was created in 500 μL of polysorbate 80, 500 μL of EtOH, and 1.0 mL of pH 2 buffer. For the toxicity studies, a suspension formulation was developed in tween 20 (20%) and xanthan gum (0.125%).\nSimilarly, the toxicity markers including phosphorus, creatinine, total bilirubin, GGT, ALP, glucose, total protein, albumin, globulin, calcium, cholesterol, and BUN were not impacted at any dose. […] At the highest dose, the concentration of ALT was slightly above the normal ALT level of 80 U/L, but below the toxicity threshold of 200 U/L. ALT levels can easily be monitored and can serve as a reversible toxicity marker in the clinical setting."}}, "data": [{"smiles": "Cn1cc(-c2ccc3c(c2)ncn3-c2ccc(CC(=O)Nc3cc(C(C)(C)C)on3)cc2)cn1", "note": "[Pz-1, N-(5-(tert-butyl)isoxazol-3-yl)-2-(4-(5-(1-methyl-1H-pyrazol-4-yl)-1H-benzo[d]imidazol-1-yl)phenyl)acetamide]", "values": [{"measurement": "formation of tumors driven by the HRAS oncogene", "setting": "[1]", "result": "only reduced, but did not abrogate"}, {"measurement": "pVEGFR2 in tumors", "setting": "VEGFR2", "result": "inhibited"}, {"measurement": "RET phosphorylation and intracellular signaling (SHC, MAPK, p70S6K and S6RP) in tumors", "setting": "RET/C634Y", "result": "inhibited"}, {"measurement": "ALT in blood", "setting": "[2]; 10 mg/kg", "result": 22, "unit": "U/L"}, {"measurement": "ALT in blood", "setting": "[2]; 30 mg/kg", "result": 51, "unit": "U/L"}, {"measurement": "ALT in blood", "setting": "[2]; 100 mg/kg", "result": 96, "unit": "U/L"}, {"measurement": "toxicity markers (phosphorus, creatinine, total bilirubin, GGT, ALP, glucose, total protein, albumin, globulin, calcium, cholesterol, BUN)", "setting": "[2]; any dose", "result": "not impacted"}, {"measurement": "organ pathological analysis in heart, kidney, and liver", "setting": "[2]; even at 100 mg/kg", "result": "did not show adverse effects"}, {"measurement": "toxicity", "setting": "[2]; one week, daily dose escalation from 10 mg/kg to 100 mg/kg, suspension formulation", "result": "no significant toxicity"}]}]}
